# Data from the supplement of paper PMC10307832.
# Assays:
# Test in all cases: relative viability (nuclei count vs DMSO), 5 days (fraction); higher = more cells survive
# DM3189 + Phenformin = compound: C1CN(CCN1)C2=CC=C(C=C2)C3=CN4C(=C(C=N4)C5=CC=NC6=CC=CC=C56)N=C3 [DM3189] + N=C(N)NC(=N)NCCc1ccccc1 [Phenformin] (partner 250 µM)
# Outline: (§1)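 Lung cancer cell lines in 1536-well plates were dosed by pin tool the day after seeding, either with one drug alone or with a fixed anchor-drug dose plus five library-drug doses (not always all listed) in √10 steps. After 5 days, cells were fixed and their nuclei stained in one step (final 0.05% Triton X-100, 1% formaldehyde, 1 ug/ml Hoechst), then counted on 4× images. Relative viability is the nuclei count in treated wells divided by that in vehicle wells. Values are medians of duplicate plates.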
# DM3189 + Pictilisib = compound: C1CN(CCN1)C2=CC=C(C=C2)C3=CN4C(=C(C=N4)C5=CC=NC6=CC=CC=C56)N=C3 [DM3189] + CS(=O)(=O)N1CCN(Cc2cc3nc(-c4cccc5[nH]ncc45)nc(N4CCOCC4)c3s2)CC1 [Pictilisib] (partner 1 µM)
# Outline: as §1
# DM3189 + Lapatinib = compound: C1CN(CCN1)C2=CC=C(C=C2)C3=CN4C(=C(C=N4)C5=CC=NC6=CC=CC=C56)N=C3 [DM3189] + CS(=O)(=O)CCNCc1ccc(-c2ccc3ncnc(Nc4ccc(OCc5cccc(F)c5)c(Cl)c4)c3c2)o1 [Lapatinib] (partner 2 µM)
# Outline: as §1
# DM3189 + Alpelisib = compound: C1CN(CCN1)C2=CC=C(C=C2)C3=CN4C(=C(C=N4)C5=CC=NC6=CC=CC=C56)N=C3 [DM3189] + Cc1nc(NC(=O)N2CCC[C@H]2C(N)=O)sc1-c1ccnc(C(C)(C)C(F)(F)F)c1 [Alpelisib] (partner 2 µM)
# Outline: as §1
# DM3189 + Dasatinib = compound: C1CN(CCN1)C2=CC=C(C=C2)C3=CN4C(=C(C=N4)C5=CC=NC6=CC=CC=C56)N=C3 [DM3189] + Cc1nc(Nc2ncc(C(=O)Nc3c(C)cccc3Cl)s2)cc(N2CCN(CCO)CC2)n1 [Dasatinib] (partner 0.075 µM)
# Outline: as §1
Cell Line,relative viability (DM3189 + Phenformin; first compound 0.08 µM),relative viability (DM3189 + Phenformin; first compound 0.253 µM),relative viability (DM3189 + Phenformin; first compound 0.8 µM),relative viability (DM3189 + Phenformin; first compound 2.53 µM),relative viability (DM3189 + Pictilisib; first compound 0.08 µM),relative viability (DM3189 + Pictilisib; first compound 0.253 µM),relative viability (DM3189 + Pictilisib; first compound 0.8 µM),relative viability (DM3189 + Pictilisib; first compound 2.53 µM),relative viability (DM3189 + Lapatinib; first compound 0.08 µM),relative viability (DM3189 + Lapatinib; first compound 0.253 µM),relative viability (DM3189 + Lapatinib; first compound 0.8 µM),relative viability (DM3189 + Lapatinib; first compound 2.53 µM),relative viability (DM3189 + Alpelisib; first compound 0.08 µM),relative viability (DM3189 + Alpelisib; first compound 0.253 µM),relative viability (DM3189 + Alpelisib; first compound 0.8 µM),relative viability (DM3189 + Alpelisib; first compound 2.53 µM),relative viability (DM3189 + Dasatinib; first compound 0.08 µM),relative viability (DM3189 + Dasatinib; first compound 0.253 µM),relative viability (DM3189 + Dasatinib; first compound 0.8 µM),relative viability (DM3189 + Dasatinib; first compound 2.53 µM)
NCI-H322M,0.866,0.782,0.651,0.652,0.565,0.526,0.462,0.447,0.651,0.633,0.508,0.603,0.734,0.867,0.805,0.884,0.268,0.251,0.235,0.218
NCI-H358,0.453,0.311,0.323,0.269,0.374,0.294,0.327,0.322,0.489,0.359,0.523,0.424,0.851,0.83,0.779,0.492,0.177,0.166,0.17,0.163
NCI-H460,0.737,0.535,0.451,0.545,0.387,0.464,0.223,0.43,1.45,1.03,0.825,0.235,0.507,0.567,0.44,0.184,0.728,0.532,0.47,0.666
NCI-H520,0.577,0.309,0.324,0.366,0.28,0.234,0.219,0.19,0.902,0.679,0.644,0.42,0.837,0.633,0.637,0.48,0.24,0.219,0.258,0.197
NCI-H596,0.724,0.802,0.78,0.709,0.419,0.247,0.412,0.407,1.19,1.06,0.799,0.99,0.578,0.517,0.386,0.478,0.747,0.71,0.497,0.609
NCI-H647,0.664,0.4,0.546,0.228,0.381,0.334,–,0.381,1.36,0.823,0.622,0.463,1.01,0.704,0.659,0.179,0.264,0.193,0.215,0.157
NCI-H650,0.518,0.497,0.47,0.489,0.976,0.888,0.741,0.845,0.992,0.593,0.765,0.521,1.35,1.07,0.975,0.915,0.558,0.509,0.5,0.408
NCI-H661,0.268,0.271,0.268,0.281,0.44,0.453,0.509,0.389,0.564,0.579,0.53,0.614,0.817,0.802,0.674,0.814,1.05,0.832,0.787,0.862
NCI-H727,0.628,0.517,–,0.533,0.593,0.347,–,0.227,0.829,0.626,–,0.781,0.638,0.503,–,0.56,0.364,0.336,–,0.299
NCI-H838,0.775,0.507,0.471,0.385,0.521,0.35,0.317,0.397,1.1,0.867,0.65,0.897,0.965,0.981,0.749,0.989,0.346,0.303,0.261,0.274
NCI-H1355,0.438,0.43,0.405,0.394,0.539,0.399,0.311,0.362,1.07,0.972,0.819,0.919,0.884,0.81,0.678,0.812,0.788,0.706,0.474,0.633
NCI-H1395,0.465,0.431,0.456,0.442,0.625,0.618,0.459,0.562,1.1,0.92,0.724,0.896,0.927,0.871,1.04,1.34,0.461,0.39,0.397,0.415
NCI-H1437,0.363,0.325,0.308,0.323,0.425,0.438,0.411,0.537,0.793,0.767,0.765,0.852,0.837,0.931,0.855,0.905,0.434,0.395,0.384,0.385
NCI-H1563,0.722,0.602,0.593,0.631,0.635,0.622,0.625,0.616,1.12,0.872,0.854,1.27,0.909,0.896,0.949,0.839,0.441,0.381,0.459,0.483
NCI-H1651,0.45,0.339,0.335,0.272,0.713,0.578,0.467,0.468,1.08,0.852,0.826,0.984,1.23,0.986,0.924,0.797,0.386,0.571,0.58,0.462
NCI-H1666,0.629,0.545,0.549,0.592,0.439,0.595,0.508,0.437,0.789,0.736,0.51,0.712,1.04,1.17,1.07,0.793,0.884,0.862,0.925,0.715
